Test results taken from PMC4904262 (ACS Medicinal Chemistry Letters, 2016).

How the values were obtained:
Details in all cases: 1 µM, ATP at Km
FGFR1 = FGFR1 (Homo sapiens, UniProt P11362)
HASPIN = HASPIN (Homo sapiens, UniProt Q8TF76)
PKCZETA = PKCZETA (Homo sapiens, UniProt Q05513)
PIP4K2A = PIP4K2A (Homo sapiens, UniProt P48426)
KDR = KDR (Homo sapiens, UniProt P35968)
BRSK2 = BRSK2 (Homo sapiens, UniProt Q8IWQ3)
RIPK2 = RIPK2 (Homo sapiens, UniProt O43353)
BRSK1 = BRSK1 (Homo sapiens, UniProt Q8TDC3)
HIPK3 = HIPK3 (Homo sapiens, UniProt Q9H422)
DDR2 = DDR2 (Homo sapiens, UniProt Q16832)
RSK2 = RSK2 (Homo sapiens, UniProt P51812)
NLK = NLK (Homo sapiens, UniProt Q9UBE8)
DYRK2 = DYRK2 (Homo sapiens, UniProt Q92630)
TSSK2 = TSSK2 (Homo sapiens, UniProt Q96PF2)
IKKALPHA = IKKALPHA (Homo sapiens, UniProt O15111)
WNK2 = WNK2 (Homo sapiens, UniProt Q9Y3S1)
GSK3BETA = GSK3BETA (Homo sapiens, UniProt P49841)
MSK2 = MSK2 (Homo sapiens, UniProt O75676)
PAK6 = PAK6 (Homo sapiens, UniProt Q9NQU5)
CK1GAMMA1 = CK1GAMMA1 (Homo sapiens, UniProt Q9HCP0)
PKBBETA = PKBBETA (Homo sapiens, UniProt P31751)
CDK6/CYCLIND3 = CDK6/CYCLIND3 (Homo sapiens, UniProt Q00534)
EPHA5 = EPHA5 (Homo sapiens, UniProt P54756)
FES = FES (Homo sapiens, UniProt P07332)
AURKC = AURKC (Homo sapiens, UniProt Q9UQB9)
CRAF = CRAF (Homo sapiens, UniProt P04049)
NEK3 = NEK3 (Homo sapiens, UniProt P51956)
EPHA8 = EPHA8 (Homo sapiens, UniProt P29322)
ROS = ROS (Homo sapiens, UniProt P08922)
PRKAA1 = PRKAA1 (Homo sapiens, UniProt Q13131)
ACK1 = ACK1 (Homo sapiens, UniProt Q07912)
RSK3 = RSK3 (Homo sapiens, UniProt Q15349)
AURKA = AURKA (Homo sapiens, UniProt O14965)
TEC ACTIVATED = TEC ACTIVATED (Homo sapiens, UniProt P42680)
ROCK-I = ROCK-I (Homo sapiens, UniProt Q13464)
PKG1BETA = PKG1BETA (Homo sapiens, UniProt Q13976)
PRKAA2 = PRKAA2 (Homo sapiens, UniProt P54646)
CKIT = CKIT (Homo sapiens, UniProt P10721)
FER = FER (Homo sapiens, UniProt P16591)
FGFR2 = FGFR2 (Homo sapiens, UniProt P21802)
NEK6 = NEK6 (Homo sapiens, UniProt Q9HC98)
MKK7BETA = MKK7BETA (Homo sapiens, UniProt O14733)
PLK3 = PLK3 (Homo sapiens, UniProt Q9H4B4)
MSSK1 = MSSK1 (Homo sapiens, UniProt Q9UPE1)
CAMKI = CAMKI (Homo sapiens, UniProt Q14012)

Chain of MKK7BETA (O14733 whole entry): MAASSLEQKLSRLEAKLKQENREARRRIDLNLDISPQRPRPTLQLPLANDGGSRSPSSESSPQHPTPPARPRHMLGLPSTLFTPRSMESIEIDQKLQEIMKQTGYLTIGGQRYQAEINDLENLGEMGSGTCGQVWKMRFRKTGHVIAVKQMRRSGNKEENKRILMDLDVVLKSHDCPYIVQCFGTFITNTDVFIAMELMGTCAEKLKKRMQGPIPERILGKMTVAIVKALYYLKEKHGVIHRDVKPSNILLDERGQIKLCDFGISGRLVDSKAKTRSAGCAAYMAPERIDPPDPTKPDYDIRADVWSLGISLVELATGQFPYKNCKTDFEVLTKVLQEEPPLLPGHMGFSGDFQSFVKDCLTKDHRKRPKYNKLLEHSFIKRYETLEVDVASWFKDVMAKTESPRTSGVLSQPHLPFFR
Chain of AURKA (O14965 whole entry): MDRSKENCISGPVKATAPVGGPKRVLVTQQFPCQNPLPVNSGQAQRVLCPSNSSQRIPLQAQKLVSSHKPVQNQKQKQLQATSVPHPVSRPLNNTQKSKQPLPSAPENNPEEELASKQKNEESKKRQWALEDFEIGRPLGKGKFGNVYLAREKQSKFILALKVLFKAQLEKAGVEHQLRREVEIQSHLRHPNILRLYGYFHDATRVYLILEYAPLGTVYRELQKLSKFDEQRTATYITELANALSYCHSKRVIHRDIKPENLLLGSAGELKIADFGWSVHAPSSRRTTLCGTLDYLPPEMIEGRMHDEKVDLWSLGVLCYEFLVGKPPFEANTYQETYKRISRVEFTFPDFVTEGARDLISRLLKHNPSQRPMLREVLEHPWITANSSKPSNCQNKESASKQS
Chain of DDR2 (Q16832 22-855): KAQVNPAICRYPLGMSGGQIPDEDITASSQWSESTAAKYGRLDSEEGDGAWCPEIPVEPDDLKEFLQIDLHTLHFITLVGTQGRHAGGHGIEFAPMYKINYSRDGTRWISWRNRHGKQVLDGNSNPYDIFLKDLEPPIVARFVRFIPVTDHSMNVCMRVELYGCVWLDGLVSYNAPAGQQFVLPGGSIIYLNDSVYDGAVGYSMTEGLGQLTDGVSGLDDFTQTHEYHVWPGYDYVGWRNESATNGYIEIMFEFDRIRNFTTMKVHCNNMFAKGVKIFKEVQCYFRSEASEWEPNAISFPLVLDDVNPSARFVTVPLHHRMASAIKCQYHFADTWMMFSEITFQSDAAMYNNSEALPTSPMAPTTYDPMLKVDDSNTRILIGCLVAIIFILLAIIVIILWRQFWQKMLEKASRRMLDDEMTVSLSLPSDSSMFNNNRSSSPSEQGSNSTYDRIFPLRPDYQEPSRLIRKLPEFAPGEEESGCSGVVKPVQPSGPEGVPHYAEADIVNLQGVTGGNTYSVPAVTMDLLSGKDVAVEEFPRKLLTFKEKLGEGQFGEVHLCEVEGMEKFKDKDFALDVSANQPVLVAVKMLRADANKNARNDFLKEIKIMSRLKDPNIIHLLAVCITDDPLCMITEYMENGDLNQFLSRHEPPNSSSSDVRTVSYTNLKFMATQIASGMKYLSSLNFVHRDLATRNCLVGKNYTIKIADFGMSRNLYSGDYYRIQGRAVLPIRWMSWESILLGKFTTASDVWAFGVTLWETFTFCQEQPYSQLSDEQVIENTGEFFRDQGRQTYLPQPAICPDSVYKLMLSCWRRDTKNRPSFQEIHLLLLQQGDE
Chain of FER (P16591 whole entry): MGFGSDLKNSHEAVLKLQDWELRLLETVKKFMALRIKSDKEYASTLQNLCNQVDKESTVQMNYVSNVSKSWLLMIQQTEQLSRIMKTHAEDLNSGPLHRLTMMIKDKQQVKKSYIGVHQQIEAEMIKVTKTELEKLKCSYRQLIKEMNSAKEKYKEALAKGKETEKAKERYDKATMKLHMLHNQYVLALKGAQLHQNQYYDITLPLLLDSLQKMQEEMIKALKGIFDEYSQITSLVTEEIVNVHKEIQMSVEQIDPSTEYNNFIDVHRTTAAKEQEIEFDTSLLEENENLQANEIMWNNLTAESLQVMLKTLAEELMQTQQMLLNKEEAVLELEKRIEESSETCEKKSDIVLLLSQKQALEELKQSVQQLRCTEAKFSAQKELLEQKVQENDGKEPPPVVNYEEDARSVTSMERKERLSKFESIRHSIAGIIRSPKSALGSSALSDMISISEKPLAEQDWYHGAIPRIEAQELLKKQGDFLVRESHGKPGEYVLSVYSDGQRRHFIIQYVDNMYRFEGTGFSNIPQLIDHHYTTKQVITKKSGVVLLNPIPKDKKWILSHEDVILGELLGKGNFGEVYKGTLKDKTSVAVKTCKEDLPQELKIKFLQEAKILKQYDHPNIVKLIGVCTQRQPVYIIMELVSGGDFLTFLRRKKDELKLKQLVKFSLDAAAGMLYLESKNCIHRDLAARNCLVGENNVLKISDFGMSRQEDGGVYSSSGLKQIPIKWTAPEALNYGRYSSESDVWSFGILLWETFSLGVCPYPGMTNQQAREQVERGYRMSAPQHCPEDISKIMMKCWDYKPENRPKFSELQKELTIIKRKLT
Chain of MSK2 (O75676 whole entry): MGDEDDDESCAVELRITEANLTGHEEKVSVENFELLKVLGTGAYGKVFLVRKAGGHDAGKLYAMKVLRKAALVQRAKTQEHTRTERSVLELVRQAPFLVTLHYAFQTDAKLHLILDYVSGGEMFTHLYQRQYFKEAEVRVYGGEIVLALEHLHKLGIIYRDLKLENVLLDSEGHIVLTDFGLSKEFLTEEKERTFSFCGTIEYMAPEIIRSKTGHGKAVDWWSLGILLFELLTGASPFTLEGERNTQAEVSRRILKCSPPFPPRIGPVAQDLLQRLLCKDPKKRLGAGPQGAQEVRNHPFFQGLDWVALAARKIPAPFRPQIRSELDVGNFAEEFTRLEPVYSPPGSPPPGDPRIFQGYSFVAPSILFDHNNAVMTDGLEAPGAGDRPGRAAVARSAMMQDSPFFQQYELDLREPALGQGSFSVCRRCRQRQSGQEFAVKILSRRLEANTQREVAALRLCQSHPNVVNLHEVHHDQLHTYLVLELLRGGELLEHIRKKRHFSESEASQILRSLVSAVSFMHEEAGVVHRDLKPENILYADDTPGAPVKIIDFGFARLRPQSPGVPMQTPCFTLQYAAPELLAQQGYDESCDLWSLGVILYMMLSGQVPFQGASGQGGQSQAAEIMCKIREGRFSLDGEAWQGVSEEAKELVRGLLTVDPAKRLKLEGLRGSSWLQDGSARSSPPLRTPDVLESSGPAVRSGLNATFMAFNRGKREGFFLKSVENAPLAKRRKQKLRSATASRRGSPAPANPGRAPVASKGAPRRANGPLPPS
Chain of PRKAA2 (P54646 whole entry): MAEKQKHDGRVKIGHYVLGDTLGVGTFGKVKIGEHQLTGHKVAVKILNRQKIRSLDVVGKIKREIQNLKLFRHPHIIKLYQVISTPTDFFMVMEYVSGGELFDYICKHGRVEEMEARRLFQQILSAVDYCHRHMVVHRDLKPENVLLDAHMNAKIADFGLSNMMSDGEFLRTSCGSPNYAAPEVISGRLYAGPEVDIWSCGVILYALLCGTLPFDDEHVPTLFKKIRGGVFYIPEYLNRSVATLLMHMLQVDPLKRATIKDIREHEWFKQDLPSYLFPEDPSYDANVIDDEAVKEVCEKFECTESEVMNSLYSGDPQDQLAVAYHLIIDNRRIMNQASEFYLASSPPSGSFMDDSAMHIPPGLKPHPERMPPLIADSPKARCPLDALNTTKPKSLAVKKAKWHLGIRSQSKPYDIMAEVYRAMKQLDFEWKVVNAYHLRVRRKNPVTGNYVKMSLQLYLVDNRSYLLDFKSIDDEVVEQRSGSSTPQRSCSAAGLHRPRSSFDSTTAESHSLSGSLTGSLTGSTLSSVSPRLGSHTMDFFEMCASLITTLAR
Chain of PRKAA2 (Q9Y478 whole entry partner): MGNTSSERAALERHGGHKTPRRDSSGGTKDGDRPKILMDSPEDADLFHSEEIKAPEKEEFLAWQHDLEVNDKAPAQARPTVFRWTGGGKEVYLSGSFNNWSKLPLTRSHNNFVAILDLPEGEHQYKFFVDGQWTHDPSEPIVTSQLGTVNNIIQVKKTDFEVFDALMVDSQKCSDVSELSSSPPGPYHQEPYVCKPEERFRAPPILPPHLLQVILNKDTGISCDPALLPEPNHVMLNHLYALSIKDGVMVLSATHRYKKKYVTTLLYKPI
Chain of PRKAA2 (P54619 whole entry partner): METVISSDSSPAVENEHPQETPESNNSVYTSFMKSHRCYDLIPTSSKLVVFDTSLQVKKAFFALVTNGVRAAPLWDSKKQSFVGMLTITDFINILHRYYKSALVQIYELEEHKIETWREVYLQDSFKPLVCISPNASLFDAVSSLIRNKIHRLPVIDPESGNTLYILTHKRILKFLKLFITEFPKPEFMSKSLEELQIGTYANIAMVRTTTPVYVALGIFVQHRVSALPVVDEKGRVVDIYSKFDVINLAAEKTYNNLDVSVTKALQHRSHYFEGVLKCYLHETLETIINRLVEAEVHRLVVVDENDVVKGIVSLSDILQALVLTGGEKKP
Chain of MSSK1 (Q9UPE1 whole entry): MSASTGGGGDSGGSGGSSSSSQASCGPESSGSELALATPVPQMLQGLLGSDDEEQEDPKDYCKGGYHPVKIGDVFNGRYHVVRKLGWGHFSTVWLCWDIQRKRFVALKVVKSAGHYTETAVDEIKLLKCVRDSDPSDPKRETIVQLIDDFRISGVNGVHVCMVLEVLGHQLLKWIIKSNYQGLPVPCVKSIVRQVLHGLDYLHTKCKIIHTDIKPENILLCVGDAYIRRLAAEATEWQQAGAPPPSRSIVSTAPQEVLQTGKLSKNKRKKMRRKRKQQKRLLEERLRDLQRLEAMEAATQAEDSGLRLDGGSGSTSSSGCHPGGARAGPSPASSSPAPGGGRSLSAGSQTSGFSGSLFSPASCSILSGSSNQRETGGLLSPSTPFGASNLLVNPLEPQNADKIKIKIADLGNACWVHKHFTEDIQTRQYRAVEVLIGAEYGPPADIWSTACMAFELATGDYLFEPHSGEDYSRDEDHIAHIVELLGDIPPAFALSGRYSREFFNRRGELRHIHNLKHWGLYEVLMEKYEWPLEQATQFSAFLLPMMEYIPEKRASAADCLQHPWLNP

With COC1CN(C(=O)c2ccc3c(N)ncc(-c4ccc(-c5cnn(C)c5)cc4)c3n2)C1 [Compound 51] the percentage effect (FGFR1) was 10%, the percentage effect (HASPIN) was -7% and the percentage effect (PKCZETA) was 4%. The percentage effect (PIP4K2A) was -5%, the percentage effect (KDR) was 0% and the percentage effect (BRSK2) was 1%. It also gave a percentage effect (RIPK2) of -16%, a percentage effect (BRSK1) of 6% and a percentage effect (HIPK3) of 6%. For the same compound, the percentage effect (DDR2) was 6%, the percentage effect (RSK2) was 6% and the percentage effect (NLK) was -3%. The percentage effect (DYRK2) was -6%, the percentage effect (TSSK2) was 15% and the percentage effect (IKKALPHA) was -17%. It also gave a percentage effect (WNK2) of 18%, a percentage effect (GSK3BETA) of 1% and a percentage effect (MSK2) of 7%. The percentage effect (PAK6) was -12%, the percentage effect (CK1GAMMA1) was -8% and the percentage effect (PKBBETA) was 13%. It also gave a percentage effect (CDK6/CYCLIND3) of -10%, a percentage effect (EPHA5) of -1% and a percentage effect (FES) of -3%. The percentage effect (AURKC) was 6%, the percentage effect (CRAF) was -20% and the percentage effect (NEK3) was -14%. The percentage effect (EPHA8) was -9%, the percentage effect (ROS) was 14% and the percentage effect (PRKAA1) was -1%. It also gave a percentage effect (ACK1) of 0%, a percentage effect (RSK3) of 4% and a percentage effect (AURKA) of -3%. It also gave a percentage effect (TEC ACTIVATED) of -18%, a percentage effect (ROCK-I) of 32% and a percentage effect (PKG1BETA) of 1%. The percentage effect (PRKAA2) was -1%, the percentage effect (CKIT) was 1% and the percentage effect (FER) was -18%. It also gave a percentage effect (FGFR2) of -3%, a percentage effect (NEK6) of -2% and a percentage effect (MKK7BETA) of 9%. The percentage effect (PLK3) was -9%, the percentage effect (MSSK1) was 7% and the percentage effect (CAMKI) was -10%.

With COC1CN(C(=O)c2ccc3c(N)ncc(-c4ccc(-c5cnn(C)c5)cc4)c3c2)C1 [Compound 59] the percentage effect (FGFR1) was 11%, the percentage effect (HASPIN) was -12% and the percentage effect (PKCZETA) was -13%. It also gave a percentage effect (PIP4K2A) of 1%, a percentage effect (KDR) of -5% and a percentage effect (BRSK2) of 5%. It also gave a percentage effect (RIPK2) of -5%, a percentage effect (BRSK1) of 2% and a percentage effect (HIPK3) of 4%. The percentage effect (DDR2) was 24%, the percentage effect (RSK2) was 0% and the percentage effect (NLK) was -5%. The percentage effect (DYRK2) was -9%, the percentage effect (TSSK2) was -26% and the percentage effect (IKKALPHA) was 28%. It also gave a percentage effect (WNK2) of -3%, a percentage effect (GSK3BETA) of -9% and a percentage effect (MSK2) of -12%. For the same compound, the percentage effect (PAK6) was 25%, the percentage effect (CK1GAMMA1) was -8% and the percentage effect (PKBBETA) was -24%. It also gave a percentage effect (CDK6/CYCLIND3) of -14%, a percentage effect (EPHA5) of 3% and a percentage effect (FES) of -7%. For the same compound, the percentage effect (AURKC) was -10%, the percentage effect (CRAF) was 0% and the percentage effect (NEK3) was -2%. For the same compound, the percentage effect (EPHA8) was -12%, the percentage effect (ROS) was -4% and the percentage effect (PRKAA1) was -3%. For the same compound, the percentage effect (ACK1) was -10%, the percentage effect (RSK3) was 4% and the percentage effect (AURKA) was -21%. The percentage effect (TEC ACTIVATED) was 13%, the percentage effect (ROCK-I) was 2% and the percentage effect (PKG1BETA) was 1%. For the same compound, the percentage effect (PRKAA2) was 2%, the percentage effect (CKIT) was -3% and the percentage effect (FER) was 3%. For the same compound, the percentage effect (FGFR2) was -6%, the percentage effect (NEK6) was -34% and the percentage effect (MKK7BETA) was -23%. The percentage effect (PLK3) was 5%, the percentage effect (MSSK1) was 13% and the percentage effect (CAMKI) was -5%.
